From ChEMBL document CHEMBL1201862, “PubChem BioAssay data set” (2004)
The source made the active and inactive calls. The rule behind the calls is not given here.

Columns and labels:
[1] = growth suppression of beta-catenin-knockout colon cells, dose response, cell-based, HCT116, human colon tumor (AID 1045); type: functional;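 note: HCT116 colon tumor cells with beta catenin knocked out; cells exposed to compound for 60 hours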
[2] = molecular target: T1, High affinity choline transporter 1 (Homo sapiens, UniProt Q9GZV3); assay: CHT inhibitors, dose response, cell-based, 5-point CRC, membrane potential dye (AID 504840); type: functional
T1 sequence (Q9GZV3 whole entry): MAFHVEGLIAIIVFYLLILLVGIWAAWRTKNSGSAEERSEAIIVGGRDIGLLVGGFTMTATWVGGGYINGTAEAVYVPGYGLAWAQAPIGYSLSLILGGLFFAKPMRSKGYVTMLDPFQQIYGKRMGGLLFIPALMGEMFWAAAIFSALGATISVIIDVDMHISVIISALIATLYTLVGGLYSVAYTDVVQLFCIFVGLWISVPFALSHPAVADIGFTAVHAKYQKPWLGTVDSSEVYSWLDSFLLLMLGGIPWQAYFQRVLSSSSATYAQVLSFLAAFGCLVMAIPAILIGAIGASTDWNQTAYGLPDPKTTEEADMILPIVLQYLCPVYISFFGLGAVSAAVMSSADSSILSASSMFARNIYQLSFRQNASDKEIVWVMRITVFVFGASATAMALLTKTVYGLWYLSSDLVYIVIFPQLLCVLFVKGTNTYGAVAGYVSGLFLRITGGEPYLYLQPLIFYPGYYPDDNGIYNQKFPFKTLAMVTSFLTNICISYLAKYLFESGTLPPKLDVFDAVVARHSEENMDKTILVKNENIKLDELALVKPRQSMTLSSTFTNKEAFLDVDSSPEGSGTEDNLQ

Question: Which EC50 [1] does the source give for O=C(O)c1ccc2c3c(ncnc13)-c1ccccc1C2=O here?
Answer: The EC50 was 13.4 µM (active).

Question: With O=C(O)c1ccc(NC2=C(Cl)C(=O)c3ccccc3C2=O)cc1 as the molecule, how does the IC50 [2] read?
Answer: Its IC50 is 14.5 µM (active).
